Results published in PubChem BioAssay AID624057 (Broad Institute, 2012).
Values joined by “and” are separate entries in the source; they are usually repeats but may differ in a detail not shown here. Identical values can stand only once. Active and inactive are the calls of the source. The rule behind the calls is not given here.

Experiments:
[1] = molecular target: Glycogen synthase kinase-3 beta (Homo sapiens) (UniProt P49841); test: reduction of cellular Tau Ser199 phosphorylation, dose response, cell-based, SH-SY5Y, ELISA, pTau Ser199, powder samples (AID 624057); settings: SH-SY5Y pTau(Ser199)/total Tau ELISA
Sequence of Glycogen synthase kinase-3 beta (Homo sapiens) (P49841 whole entry, looked up): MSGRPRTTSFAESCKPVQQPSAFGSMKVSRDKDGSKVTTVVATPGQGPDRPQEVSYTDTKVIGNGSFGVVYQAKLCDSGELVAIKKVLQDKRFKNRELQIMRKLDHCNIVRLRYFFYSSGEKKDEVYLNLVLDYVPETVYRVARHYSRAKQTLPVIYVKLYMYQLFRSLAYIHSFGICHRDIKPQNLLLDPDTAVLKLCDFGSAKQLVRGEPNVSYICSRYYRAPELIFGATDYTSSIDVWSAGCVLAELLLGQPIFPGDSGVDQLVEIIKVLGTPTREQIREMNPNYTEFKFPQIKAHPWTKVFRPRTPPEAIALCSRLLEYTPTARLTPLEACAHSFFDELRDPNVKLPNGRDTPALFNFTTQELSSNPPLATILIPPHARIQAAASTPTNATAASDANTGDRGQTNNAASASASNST

[2] = as above; settings: SH-SY5Y pTau(Ser199)/total Tau ELISA; measured here: cell survival (total Tau) top dose; at 35 µM; stronger effect = lower value

SMILES	IC50 [1]	viability [2] [%]
COc1ccccc1[C@H]1C2=C(CC(C)(C)CC2=O)Nc2n[nH]c(C(F)(F)F)c21	> 35 µM (inactive)	–
CSc1ccccc1C1C2=C(CC(C)(C)CC2=O)Nc2n[nH]c(C)c21 (stereo not drawn)	2.85 µM	106
Cc1[nH]nc2c1C(c1cccc(C#N)c1)C1=C(CC(C)(C)CC1=O)N2 (stereo not drawn)	2.5 µM	119
COc1ccccc1[C@@H]1C2=C(CC(C)(C)CC2=O)Nc2n[nH]c(C)c21	6.57 µM and > 35 µM (inactive)	–
Cc1[nH]nc2c1[C@H](c1ccccc1C(F)(F)F)C1=C(CC(C)(C)CC1=O)N2	> 35 µM (inactive)	–
Cc1[nH]nc2c1C(c1ccccc1F)C1=C(CC(C)(C)CC1=O)N2 (stereo not drawn)	–	113
Cc1[nH]nc2c1C(c1cccc(C(F)(F)F)c1)C1=C(CC(C)(C)CC1=O)N2 (stereo not drawn)	4.68 µM	–
COc1ccccc1C1C2=C(CC(C)(C)CC2=O)Nc2n[nH]c(C)c21 (stereo not drawn)	7.1 µM	–
Cc1[nH]nc2c1C(c1ccccc1C(F)(F)F)C1=C(CC(C)(C)CC1=O)N2 (stereo not drawn)	4.24 µM	–
COc1ccccc1C1C2=C(CC(C)(C)CC2=O)Nc2n[nH]c(C(F)(F)F)c21 (stereo not drawn)	2.75 µM and 0.76 µM	–

Further compounds by falling IC50 [1], results first:

IC50 [1]	SMILES	viability [2] [%]
2.49 µM	Cc1[nH]nc2c1C(c1ccccc1Cl)C1=C(CC(C)(C)CC1=O)N2 (stereo not drawn)	–
2.27 µM	Cc1[nH]nc2c1[C@@H](c1ccccc1C(F)(F)F)C1=C(CC(C)(C)CC1=O)N2	110
2.27 µM	Cc1[nH]nc2c1C(c1cccc3nonc13)C1=C(CC(C)(C)CC1=O)N2 (stereo not drawn)	112
1.87 µM	CC1(C)CC(=O)C2=C(C1)Nc1n[nH]c(C(F)(F)F)c1C2(C)c1ccccc1 (stereo not drawn)	–
1.38 µM	CC1(C)CC(=O)C2=C(C1)Nc1n[nH]c(C(F)(F)F)c1C2c1cccc(F)c1C(F)(F)F (stereo not drawn)	57.1
0.56 µM	COc1ccccc1[C@@H]1C2=C(CC(C)(C)CC2=O)Nc2n[nH]c(C(F)(F)F)c21	–
0.51 µM	CC1(C)CC(=O)C2=C(C1)Nc1n[nH]c(C(F)(F)F)c1C2c1ccccc1 (stereo not drawn)	–
0.41 µM	CC1(C)CC(=O)C2=C(C1)Nc1n[nH]c(C(F)(F)F)c1C2c1ccccc1C(F)(F)F (stereo not drawn)	–
